In one assay the target is T1, HLA-DRB1*01:01 (Homo sapiens, UniProt P01903+P01911, A100R/D57E/F55L/F60I/F76Y/I96L/L162R/M171V/P40L/Q125E/R42F/V115G/Y59C).
T1 construct: EBV transformed homozygous cell lines were used as sources of MHC molecules; endogenous in cells; host or cells: EBV transformed homozygous cell lines
Kind of assay: HLA class II peptide binding, inhibition of radiolabeled peptide binding to purified MHC.

In a further assay the target is T2, HLA-DRB1*04:01 (Homo sapiens, UniProt P01903+P01911, A100K/A169T/F76Y/I96L/K127E/L162R/M171V/N62H/P40V/Q125Y/R42H/S133A/S149N/S66Y/V115G/V209L/W38E).
T2 construct: EBV transformed homozygous cell lines were used as sources of MHC molecules; endogenous in cells; host or cells: EBV transformed homozygous cell lines
The assay is described as above.

Setting [1] is: citrullinated 15-mer (X), purified MHC, inhibition of radiolabeled peptide binding, dash = IC50 >40,000 nM, read-out: DRB1*01:01 binding capacity, Cit peptide (IC50 nM).
[2] abbreviates: citrullinated 15-mer (X), purified MHC, inhibition of radiolabeled peptide binding, dash = IC50 >40,000 nM, read-out: DRB1*04:01 binding capacity, Cit peptide (IC50 nM).
The mark [3] stands for this setting: wild-type (unmodified Arg) 15-mer peptide, purified HLA-DRB1*01:01, read-out: DRB1*01:01 binding capacity, WT peptide (IC50 nM).
[4] abbreviates: wild-type (unmodified Arg) 15-mer peptide, purified HLA-DRB1*04:01, read-out: DRB1*04:01 binding capacity, WT peptide (IC50 nM).
[5] abbreviates: read-out: DRB1*01:01 binding capacity, WT peptide (IC50 nM).
[6] abbreviates: read-out: DRB1*04:01 binding capacity, WT peptide (IC50 nM).
[7] abbreviates: citrullinated 15-mer peptide (X = citrulline), purified HLA-DRB1*01:01, read-out: DRB1*01:01 binding capacity, Cit peptide (IC50 nM).
Where [8] appears, read: citrullinated 15-mer peptide (X = citrulline), purified HLA-DRB1*04:01, read-out: DRB1*04:01 binding capacity, Cit peptide (IC50 nM).

Where two headings read alike, the source gives them in different places. Square brackets hold non-standard residues; d marks the D form. Ends that are not written are not given here. Peptide text beside a SMILES is read from it. Cit = NC(=O)NCCC[C@H](N)C(=O)O Bounds are passed on as bounds.

These results are taken from publication PMC5421785, “Citrullination only infrequently impacts peptide binding to HLA class II MHC” (PLoS ONE, 2017).

As to `CC[C@H](C)[C@H](NC(=O)[C@@H](N)CC(=O)O)C(=O)N[C@@H](CCSC)C(=O)N[C@@H](CCCNC(=N)N)C(=O)N[C@@H](CC(C)C)C(=O)N[C@@H](CCCNC(N)=O)C(=O)N[C@@H](CCC(=O)O)C(=O)N[C@@H](CCCCN)C(=O)N[C@@H](CC(C)C)C(=O)N[C@@H](CCC(N)=O)C(=O)N[C@@H](CCC(=O)O)C(=O)N[C@@H](CCC(=O)O)C(=O)N[C@@H](CCSC)C(=O)N[C@@H](CC(C)C)C(=O)N[C@@H](CCC(N)=O)C(=O)O` [DIMRLXEKLQEEMLQ] (H-DIMRL[Cit]EKLQEEMLQ-OH), the IC50 (commonly the concentration that gives 50% inhibition) was 729 nM at HLA-DRB1*01:01 (setting [1]) and over 40000 nM at HLA-DRB1*04:01 (setting [2]).

In the case of `CC[C@H](C)[C@H](NC(=O)[C@H](CC(=O)O)NC(=O)[C@H](CC(C)C)NC(=O)[C@H](C)NC(=O)[C@H](CCSC)NC(=O)[C@H](CCCCN)NC(=O)[C@@H](NC(=O)[C@H](CC(N)=O)NC(=O)[C@H](CC(C)C)NC(=O)[C@H](CC(C)C)NC(=O)[C@H](CC(=O)O)NC(=O)[C@H](CCC(N)=O)NC(=O)[C@H](Cc1ccc(O)cc1)NC(=O)[C@H](CCC(=O)O)NC(=O)[C@@H](N)CCCNC(=N)N)C(C)C)C(=O)O` [Vimentin 381 WT], the IC50 at HLA-DRB1*01:01 (setting [3]) is 192 nM; on HLA-DRB1*04:01 (setting [4]) it was 1220 nM.

For EEMLQREEAENTLQS [Vimentin 191 WT], the IC50 at HLA-DRB1*01:01 (setting [5]) came out at 704 nM; on HLA-DRB1*04:01 (setting [6]) it was 11900 nM.

As to `CC[C@H](C)[C@H](NC(=O)CN)C(=O)N[C@@H](C)C(=O)NCC(=O)N[C@@H](C)C(=O)N1CCC[C@H]1C(=O)NCC(=O)N[C@@H](Cc1ccccc1)C(=O)N1CCC[C@H]1C(=O)NCC(=O)N1CCC[C@H]1C(=O)N[C@@H](CCCNC(N)=O)C(=O)NCC(=O)N1CCC[C@H]1C(=O)N1CCC[C@H]1C(=O)O` [GIAGAPGFPGPXGPP] (H-GIAGAPGFPGP[Cit]GPP-OH), the IC50 on HLA-DRB1*01:01 (setting [7]) was 565 nM; at HLA-DRB1*04:01 (setting [8]), over 40000 nM.

As for `CC[C@H](C)[C@H](NC(=O)CNC(=O)[C@H](CCCNC(N)=O)NC(=O)[C@H](CCC(N)=O)NC(=O)CNC(=O)[C@H](C)NC(=O)[C@H](CC(C)C)NC(=O)CNC(=O)[C@H](CCC(N)=O)NC(=O)[C@@H]1CCCN1C(=O)CNC(=O)[C@@H]1CCCN1)C(=O)N[C@H](C(=O)NCC(=O)N[C@@H](CC(C)C)C(=O)O)C(C)C` [PGPQGLAGQXGIVGL], the IC50 on HLA-DRB1*01:01 (setting [7]) came out at 7.1 nM; at HLA-DRB1*04:01 (setting [8]) it was 7920 nM.

Turning to `CC(C)C[C@H](NC(=O)[C@H](CCC(=O)O)NC(=O)[C@H](CCC(N)=O)NC(=O)[C@H](CC(C)C)NC(=O)[C@H](CCC(=O)O)NC(=O)[C@@H](NC(=O)[C@H](CCCCN)NC(=O)[C@H](CCC(=O)O)NC(=O)[C@H](CC(N)=O)NC(=O)[C@@H](NC(=O)[C@H](CCCNC(N)=O)NC(=O)[C@@H](NC(=O)[C@H](CC(N)=O)NC(=O)[C@H](CCCCN)NC(=O)[C@@H](N)Cc1ccccc1)[C@@H](C)O)[C@@H](C)O)C(C)C)C(=O)O` [FKNTXTNEKVELQEL] (H-FKNT[Cit]TNEKVELQEL-OH), the IC50 on HLA-DRB1*01:01 (setting [1]) is 9330 nM; on HLA-DRB1*04:01 (setting [2]) it was 1140 nM.

For `CC(C)C[C@H](NC(=O)CNC(=O)[C@@H]1CCCN1C(=O)[C@H](C)NC(=O)CNC(=O)[C@@H]1CCCN1C(=O)[C@H](CC(C)C)NC(=O)CNC(=O)[C@H](CCCCN)NC(=O)[C@H](CCC(=O)O)NC(=O)CNC(=O)[C@H](C)NC(=O)[C@@H](N)CCCCN)C(=O)N[C@@H](CCCNC(N)=O)C(=O)NCC(=O)O` [KAGEKGLPGAPGLXG] (H-KAGEKGLPGAPGL[Cit]G-OH), the IC50 is 578 nM on HLA-DRB1*01:01 (setting [7]) and over 40000 nM on HLA-DRB1*04:01 (setting [8]).

For `CC[C@H](C)[C@H](NC(=O)[C@H](CCC(=O)O)NC(=O)[C@H](CC(=O)O)NC(=O)[C@H](CCC(N)=O)NC(=O)[C@H](CC(C)C)NC(=O)[C@H](CCCNC(N)=O)NC(=O)CNC(=O)[C@@H](NC(=O)[C@@H](NC(=O)[C@H](CC(=O)O)NC(=O)[C@H](CCC(N)=O)NC(=O)[C@H](Cc1ccc(O)cc1)NC(=O)[C@H](CC(N)=O)NC(=O)[C@H](C)N)[C@@H](C)O)[C@@H](C)CC)C(=O)N[C@@H](CCC(N)=O)C(=O)O` [ANYQDTIGXLQDEIQ] (H-ANYQDTIG[Cit]LQDEIQ-OH), the figures for the IC50 on HLA-DRB1*01:01 (setting [7]) and at HLA-DRB1*04:01 (setting [8]) were 1050 nM and 6720 nM, respectively.

As to `CSCC[C@H](NC(=O)[C@H](CCC(N)=O)NC(=O)[C@H](CCCNC(=N)N)NC(=O)[C@H](CCC(=O)O)NC(=O)[C@H](CC(C)C)NC(=O)[C@H](CO)NC(=O)[C@H](CCC(=O)O)NC(=O)[C@H](CC(N)=O)NC(=O)[C@@H](NC(=O)CNC(=O)[C@H](CCCCN)NC(=O)[C@H](CC(C)C)NC(=O)[C@H](C)NC(=O)[C@@H](N)CC(=O)O)[C@@H](C)O)C(=O)N[C@@H](CCCNC(N)=O)C(=O)O` [DALKGTNESLERQMX] (H-DALKGTNESLERQM[Cit]-OH), the results for the 50% inhibitory concentration (IC50) at HLA-DRB1*01:01 (setting [7]) and at HLA-DRB1*04:01 (setting [8]) were 24200 nM and 17500 nM, respectively.

Take `CC(C)C[C@H](NC(=O)CNC(=O)[C@@H]1CCCN1C(=O)[C@H](C)NC(=O)CNC(=O)[C@@H]1CCCN1C(=O)[C@H](CC(C)C)NC(=O)CN)C(=O)N[C@@H](CCCNC(N)=O)C(=O)NCC(=O)N[C@@H](CC(C)C)C(=O)N1CCC[C@H]1C(=O)NCC(=O)N[C@@H](CCCCN)C(=O)N[C@@H](CC(=O)O)C(=O)O` [GLPGAPGLXGLPGKD] (H-GLPGAPGL[Cit]GLPGKD-OH): the IC50 was 514 nM at HLA-DRB1*01:01 (setting [7]) and over 40000 nM on HLA-DRB1*04:01 (setting [8]).

As for `CC[C@H](C)[C@H](NC(=O)[C@H](CC(=O)O)NC(=O)[C@@H](NC(=O)[C@@H](NC(=O)[C@@H]1CCCN1C(=O)[C@H](CC(C)C)NC(=O)[C@H](CCCNC(N)=O)NC(=O)[C@H](CO)NC(=O)[C@@H](NC(=O)[C@H](CCCCN)NC(=O)[C@H](CCC(N)=O)NC(=O)[C@H](CO)NC(=O)[C@H](CCCNC(=N)N)NC(=O)[C@H](Cc1ccc(O)cc1)NC(=O)[C@@H](N)CCC(=O)O)[C@@H](C)O)[C@@H](C)CC)[C@@H](C)CC)C(=O)O` [EYRSQKTSXLPIIDI] (H-EYRSQKTS[Cit]LPIIDI-OH), the IC50 was 6.9 nM at HLA-DRB1*01:01 (citrullinated peptide as listed (X at Cit position), read-out: DRB1*01:01 binding capacity Cit peptide (IC50 nM)); 14 nM on HLA-DRB1*01:01 (value of the wild-type (non-citrullinated) counterpart of the listed peptide, read-out: DRB1*01:01 binding capacity WT peptide (IC50 nM)); 316 nM on HLA-DRB1*04:01 (citrullinated peptide as listed (X at Cit position), read-out: DRB1*04:01 binding capacity Cit peptide (IC50 nM)); 314 nM on HLA-DRB1*04:01 (value of the wild-type (non-citrullinated) counterpart of the listed peptide, read-out: DRB1*04:01 binding capacity WT peptide (IC50 nM)).

With REEAENTLQSFRQDV [Vimentin 196 WT], the IC50 on HLA-DRB1*01:01 (setting [5]) worked out at 6560 nM; on HLA-DRB1*04:01 (setting [6]), 6010 nM.

Regarding GPRGERGFPGERGSP [Collagen 696 WT], the values for the IC50 at HLA-DRB1*01:01 (setting [3]) and at HLA-DRB1*04:01 (setting [4]) were 11200 nM and over 40000 nM, respectively.

For ERQMREMEENFAVEA [Vimentin 341 WT], the IC50 was 11100 nM at HLA-DRB1*01:01 (setting [3]) and 912 nM on HLA-DRB1*04:01 (setting [4]).

For `CC(C)C[C@H](NC(=O)[C@H](C)NC(=O)[C@H](CO)NC(=O)CNC(=O)[C@H](CC(C)C)NC(=O)[C@H](CO)NC(=O)[C@H](Cc1ccc(O)cc1)NC(=O)[C@@H](NC(=O)[C@@H](N)CCCNC(N)=O)[C@@H](C)O)C(=O)N[C@@H](CCCNC(=N)N)C(=O)N1CCC[C@H]1C(=O)N[C@@H](CO)C(=O)N[C@H](C(=O)N[C@@H](CO)C(=O)N[C@@H](CCCNC(=N)N)C(=O)O)[C@@H](C)O` [XTYSLGSALRPSTSR] (H-[Cit]TYSLGSALRPSTSR-OH), the figures for the half-inhibitory concentration (IC50) on HLA-DRB1*01:01 (setting [1]) and at HLA-DRB1*04:01 (setting [2]) were 53 nM and 4770 nM, respectively.

Turning to `CSCC[C@H](NC(=O)[C@@H](NC(=O)CNC(=O)[C@@H]1CCCN1C(=O)[C@H](CCC(N)=O)NC(=O)CNC(=O)[C@@H](N)CCCNC(N)=O)C(C)C)C(=O)NCC(=O)N[C@@H](Cc1ccccc1)C(=O)N1CCC[C@H]1C(=O)NCC(=O)N1CCC[C@H]1C(=O)N[C@@H](CCCCN)C(=O)NCC(=O)N[C@@H](C)C(=O)O` [XGQPGVMGFPGPKGA] (H-[Cit]GQPGVMGFPGPKGA-OH), the results for the IC50 at HLA-DRB1*01:01 (setting [7]) and on HLA-DRB1*04:01 (setting [8]) were 493 nM and over 40000 nM, respectively.

On to ARLDLERKVESLQEE [Vimentin 216 WT], for which the IC50 at HLA-DRB1*01:01 (setting [5]) worked out at 6310 nM; at HLA-DRB1*04:01 (setting [6]), 17200 nM.
